# Test results: US20110008802A1, “TNFalpha GENE EXPRESSION AS A BIOMARKER OF SENSITIVITY TO ANTAGONISTS OF INHIBITOR OF APOPTOSIS PROTEINS” (TETRALOGIC PHARMACEUTICALS CORP., priority 2007, published 2011)
# Legend:
# SKOV3 cells = assay: MTT assay of compound C with or without TNFα blocking antibody, SKOV3 cells; type: cell-based, human; details: compound C+anti-TNFα antibody (MAB610) vs compound C alone, 72 hrs
# Procedure: (§1) We have previously observed that our compounds promote rapid cIAP-1 degradation. Therefore, we hypothesized that degradation of cIAP-1 may result in autocrine activation of the death-receptor pathway by TNFα. To test this, we used TNFα blocking antibody in an MTT assay. Briefly, indicated ovarian cancer cell lines were seeded into 96-well cell culture plates at a density of 5,000 cells per well. The next day, anti-TNFα antibody (MAB610, R&D Systems, Minneapolis, Minn.) was added to cells at a final concentration of 10 µg/mL and allowed to incubate for 1 hr at 37° C., 5% CO2. Following incubation, a range of concentrations of the cIAP antagonist compound C was added to cells. Cells were incubated in the presence of compound C+anti-TNFα antibody or in the presence of compound C alone as a control for an additional 72 hrs. Following 72 hr incubation, MTT reagent (3-(4,5-dimethylthiazolyl-2)-2,5-diphenyltetrazolium bromide; SIGMA, St. Louis, Mo.) was added to all wells at a final concentration of 1 mg/mL and allowed to incubate for 2 hrs at 37° C., 5% CO2. Following a 2 hr incubation, all media was removed from wells and […] DMSO was added to solubilize formazan crystals. After a brief incubation at room temp on a microplate shaker, absorbance was measured at 570 nm using a Victor^2V fluorescent microplate reader (Perkin-Elmer, Turku, Finland). […]
# OVCAR-8 cells = assay: MTT assay of compound C with or without TNFα blocking antibody, OVCAR-8 cells; type: cell-based, human; details: compound C+anti-TNFα antibody (MAB610) vs compound C alone, 72 hrs
# Procedure: as §1
structure (smiles),measurement,setting,value
CN[C@@H](C)C(=O)N[C@H](C(=O)N1C[C@@H](O)C[C@H]1CC1=C(C2=C(C[C@@H]3C[C@H](O)CN3C(=O)[C@@H](NC(=O)[C@H](C)NC)[C@@H](C)OC)c3ccc(F)cc3C2)Cc2cc(F)ccc21)[C@@H](C)OC [compound C],"effect of anti-TNFα antibody on cIAP antagonist induced cytotoxicity (CC50 curve, FIG. 2)",SKOV3 cells,abrogates cIAP antagonist induced cytotoxicity
same,"effect of anti-TNFα antibody on cIAP antagonist induced cytotoxicity (CC50 curve, FIG. 1)",OVCAR-8 cells,abrogates cIAP antagonist induced cytotoxicity
